Columns and labels:
[1] = biological target: T1, recombinant human cannabinoid 1 receptor (CB1) (Homo sapiens, UniProt P21554); experiment: [35S]GTPγS binding assay, antagonism against WIN 55,212-2; assay type: biochemical; conditions: compound at 1 μM against WIN 55,212-2 dose response, CHO-hCB1 membranes, 100% = effect of internal standard CB1-antagonist
T1 construct: expressed in transfected cells; membranes prepared
Procedure: Chinese hamster ovary (CHO) cells stably expressing recombinant human cannabinoid 1 receptor (CB1) were cultured in nutrient mixture Ham's F 12 supplemented with 10% heat-inactivated fetal bovine serum, 2 mM L-glutamine, 50 U/ml penicillin, 50 U/ml streptomycin and 0.5 mg/ml geneticin. In order to obtain cells, culture flasks were washed twice with phosphate buffered saline and scraped. Then, cells were collected by centrifugation (200×g, 10 min) and stored dry at −80° C. Cells were homogenized in ice-cold 20 mM HEPES, 10 mM EDTA (pH 7.5) and centrifuged at 40,000×g for 15 min at 4° C. The pellet was resuspended in 20 mM HEPES, 0.1 mM EDTA (pH 7.5) and centrifuged for 15 min at 4° C. The final pellet was resuspended in 20 mM HEPES, 0.1 mM EDTA (pH 7.5), and divided in aliquots and stored at −80° C. until use.
The reaction was performed in 96-well plates. Membranes (15 µg protein/well) were incubated for 60 min at 30° C. in buffer (50 mM HEPES, 100 mM KCl, 5 mM MgCl2, 1 mM EDTA, 0.1% wt/vol bovine serum albumin, 5 μM GDP, saponin (10 μg/ml), 0.5 nM [^35S]GTPγS, pH 7.4) with compound at 1 μM final concentration in either the absence or presence of dose response curve of agonist WIN 55, 212-2 between 3 nM and 3 μM. The incubation was terminated by rapid filtration through Millipore Multiscreen glass fiber FB, and rinsed two-times with ice-cold assay buffer. Filter plates were dried and 30 μl of scintillation liquid was added. Radioactivity was determined using Wallac Microbeta Trilux. Each experiment was performed at least in duplicate. A WIN 55, 212-2 dose-response was systematically performed.
The average of basal [^35S]GTPγS binding was subtracted from all binding data. In order to compare the antagonism results from one screening campaign to another one, the difference between the maximal agonist effect of WIN 55, 212-2 alone, and the maximal antagonism effect due to WIN 55, 212-2 with an internal standard CB1-antagonist was defined as 100%.

[2] = In vivo testing for antiobesic activity, acute treatment; conditions: rats, acute oral administration; body weight difference versus control
Procedure: Normally handled rats were habituated to a reversed cycle 12/12 h, and the compound as well as saline was acutely orally administered. After administration the cumulated food intake (g) was measured at 6 h and 23 h. Following that the difference in body weight between control and compound treated animals was measured.

T1 sequence (P21554 whole entry): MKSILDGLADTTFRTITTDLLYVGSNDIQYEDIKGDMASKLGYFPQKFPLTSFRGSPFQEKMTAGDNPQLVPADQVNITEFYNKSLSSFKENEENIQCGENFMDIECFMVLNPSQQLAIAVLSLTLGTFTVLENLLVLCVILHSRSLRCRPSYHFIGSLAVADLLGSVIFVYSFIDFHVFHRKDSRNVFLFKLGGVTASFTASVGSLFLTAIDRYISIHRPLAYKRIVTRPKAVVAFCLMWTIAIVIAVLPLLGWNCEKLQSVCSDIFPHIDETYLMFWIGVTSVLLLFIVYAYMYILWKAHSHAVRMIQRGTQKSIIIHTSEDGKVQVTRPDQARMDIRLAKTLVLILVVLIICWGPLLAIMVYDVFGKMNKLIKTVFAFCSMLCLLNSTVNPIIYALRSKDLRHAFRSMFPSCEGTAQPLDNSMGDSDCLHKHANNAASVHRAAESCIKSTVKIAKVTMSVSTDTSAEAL

SMILES	Antagonism (%) [1]	Antagonism (%) ([1]; hydrochloride)	reduction of body weight [2]
C[C@H]1C(C(=O)NN2CC3CCCC3C2)=NN(c2ccc(Cl)cc2Cl)[C@H]1c1ccc(Br)cc1.Cl (relative stereo) [Example 3, cis-5-(4-bromophenyl)-1-(2,4-dichlorophenyl)-N-(hexahydrocyclopenta-[c]pyrrol-2(1H)-yl)-4-methyl-4,5-dihydro-1H-pyrazole-3-carboxamide hydrochloride]	99 ± 2%		
C[C@H]1C(C(=O)NN2CC3CCCC3C2)=NN(c2ccc(Cl)cc2Cl)[C@H]1c1ccc(F)cc1.Cl (relative stereo) [Example 5, cis-1-(2,4-dichlorophenyl)-5-(4-fluorophenyl)-N-(hexahydrocyclopenta-[c]pyrrol-2(1H)-yl)-4-methyl-4,5-dihydro-1H-pyrazole-3-carboxamide hydrochloride]	108 ± 13%		
COc1ccc([C@H]2[C@@H](C)C(C(=O)NN3CC4CCCC4C3)=NN2c2ccc(Cl)cc2Cl)cc1.Cl (relative stereo) [Example 7, cis-1-(2,4-dichlorophenyl)-N-(hexahydrocyclopenta[c]pyrrol-2(1H)-yl)-5-(4-methoxyphenyl)-4-methyl-4,5-dihydro-1H-pyrazole-3-carboxamide hydrochloride]	148%		
C[C@H]1C(C(=O)NN2CC3CCCC3C2)=NN(c2ccc(Cl)cc2Cl)[C@H]1c1ccc(Cl)cc1.Cl (single isomer, unassigned) [1 (HCl), cis-5-(4-chlorophenyl)-1-(2,4-dichlorophenyl)-N-(hexahydrocyclopenta-[c]pyrrol-2(1H)-yl)-4-methyl-4,5-dihydro-1H-pyrazole-3-carboxamide hydrochloride]		102 ± 7%	
C[C@H]1C(C(=O)NN2CC3CCCC3C2)=NN(c2ccc(Cl)cc2Cl)[C@H]1c1ccc(Cl)cc1.Cl (single isomer, unassigned) [Example 1, cis-5-(4-chlorophenyl)-1-(2,4-dichlorophenyl)-N-(hexahydrocyclopenta-[c]pyrrol-2(1H)-yl)-4-methyl-4,5-dihydro-1H-pyrazole-3-carboxamide hydrochloride]		112 ± 0%	good activity

From US20090054509A1, “Octahydropentalene-Substituted Pyrazoline Derivatives, Their Prepartion and Use as Medicaments” (LABORATORIOS DEL DR. ESTEVE, S.A., priority 2005, published 2009)
